Laboratory results published in US20080146524A1, “Selective inhibitors of neurotensin degrading enzymes” (Solvay Pharmaceuticals B.V., priority 2006, published 2008).
Residues, ends and D or L forms follow the SMILES beside them.

Tests used:
Neurolysine EC 3.4.24.16 = Neurolysine EC 3.4.24.16 (UniProt P42676); type: biochemical
[1] = target: Thimet oligopeptidase EC 3.4.24.15 (UniProt P24155); assay: enzyme inhibition of Thimet oligopeptidase EC 3.4.24.15 (published methods, Dauch 1991a,b); type: biochemical
[2] = determination of chemical stability, storage in glass vials, LC-MS; type: physicochemical; settings: for relative stability: stored in glass vials, LC-MS; for stability on storage (in words): over 10 days (240 hr)
Experimental: Compound 36 and its phosphinamide analog phosphodiepril (FR 2 654 430, synthesized as disclosed therein) were stored separately in glass vials. At different time intervals samples were taken and analyzed by LC-MS. Samples were dissolved in DMSO (0.1 mg/ml) and diluted by a factor 100 in the first LC eluent (A). At fixed time points an amount of 100 μl was taken from the formulations. These time points were 0, 3, 72, and 240 hours. All samples were measured in the positive mode, with an ESI source on the LC-MS.
Eluents were composed of water (H2O), acetonitril (ACN), methanol (MeOH) and ammonium-acetate (NH4Ac). The eluent is mixed out of two different bottles with two different compositions. • Eluent A consists of H2O/ACN/MeOH 800/100/100+0.77 g/l NH4Ac. • Eluent B consists of H2O/ACN/MeOH 100/800/100+0.77 g/l NH4Ac.
The gradient in the pump was set to:
Columns: Chromsep Guard Column SS 10×2 mm (CP28141) and Inertsil 5 ODS-3 100×3.0 mm (CP22234). Column temperature: 25° C.
Injection: well plate temperature: 25° C. • Injection volume: 20 μl • Splitter (post column): 1:4 • Run time: 9.50 minutes.
Detection MS-MS:ESI (pos/neg) spray 3.0 kV • Fragmentor 70 • Gain 2.0 • Dwell 700 msec • Nebulizer pressure 42 psig • Drying gas temperature 325° C. • Capillary temperature 325° C.
Compound 36 and its phosphinamide analog phosphodiepril (FR 2 654 430, synthesized as disclosed therein) were stored separately in glass vials. At different time intervals samples were taken and analyzed by LC-MS.
When calculating the relative stability it was assumed that the compounds were completely dissolved during formulation. Therefore, the relative stability is 100% at the beginning (0 hour measurement). The following time measurements are recalculated from that measurement.

[3] = in vivo experiments with phosphodiepril
From the text: Thus, even in its pure form, the N-analog is not stable. Due to the rapid hydrolysis of the phosphonamide bond, enzyme inhibition activity of this compound can only be determined with difficulty.

endopeptidase 24.16 = endopeptidase 24.16 (Rattus norvegicus, UniProt P42676); settings: cited from earlier work
endopeptidase 24.16, sequence (P42676 38-704): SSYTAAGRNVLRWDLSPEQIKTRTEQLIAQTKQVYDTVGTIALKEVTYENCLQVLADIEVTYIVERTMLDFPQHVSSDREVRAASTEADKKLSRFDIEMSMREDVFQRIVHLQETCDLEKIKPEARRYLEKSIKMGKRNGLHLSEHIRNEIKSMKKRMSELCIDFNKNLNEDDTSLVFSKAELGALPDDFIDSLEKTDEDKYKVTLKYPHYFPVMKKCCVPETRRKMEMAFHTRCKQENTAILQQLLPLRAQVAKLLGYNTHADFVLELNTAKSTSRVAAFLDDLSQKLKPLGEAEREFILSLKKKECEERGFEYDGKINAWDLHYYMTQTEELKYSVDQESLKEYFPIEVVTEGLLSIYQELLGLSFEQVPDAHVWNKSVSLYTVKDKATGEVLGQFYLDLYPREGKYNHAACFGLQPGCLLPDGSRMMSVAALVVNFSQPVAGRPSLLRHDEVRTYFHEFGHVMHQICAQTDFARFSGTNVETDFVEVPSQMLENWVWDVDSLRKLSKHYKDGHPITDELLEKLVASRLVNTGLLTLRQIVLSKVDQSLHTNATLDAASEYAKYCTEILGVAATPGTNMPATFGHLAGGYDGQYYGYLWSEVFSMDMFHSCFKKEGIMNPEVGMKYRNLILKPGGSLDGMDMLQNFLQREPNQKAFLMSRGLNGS

endopeptidase 24.15 = endopeptidase 24.15 (Rattus norvegicus, UniProt P24155); settings: at concentrations as high as 5 mM; cited from earlier work
endopeptidase 24.15, sequence (P24155 whole entry): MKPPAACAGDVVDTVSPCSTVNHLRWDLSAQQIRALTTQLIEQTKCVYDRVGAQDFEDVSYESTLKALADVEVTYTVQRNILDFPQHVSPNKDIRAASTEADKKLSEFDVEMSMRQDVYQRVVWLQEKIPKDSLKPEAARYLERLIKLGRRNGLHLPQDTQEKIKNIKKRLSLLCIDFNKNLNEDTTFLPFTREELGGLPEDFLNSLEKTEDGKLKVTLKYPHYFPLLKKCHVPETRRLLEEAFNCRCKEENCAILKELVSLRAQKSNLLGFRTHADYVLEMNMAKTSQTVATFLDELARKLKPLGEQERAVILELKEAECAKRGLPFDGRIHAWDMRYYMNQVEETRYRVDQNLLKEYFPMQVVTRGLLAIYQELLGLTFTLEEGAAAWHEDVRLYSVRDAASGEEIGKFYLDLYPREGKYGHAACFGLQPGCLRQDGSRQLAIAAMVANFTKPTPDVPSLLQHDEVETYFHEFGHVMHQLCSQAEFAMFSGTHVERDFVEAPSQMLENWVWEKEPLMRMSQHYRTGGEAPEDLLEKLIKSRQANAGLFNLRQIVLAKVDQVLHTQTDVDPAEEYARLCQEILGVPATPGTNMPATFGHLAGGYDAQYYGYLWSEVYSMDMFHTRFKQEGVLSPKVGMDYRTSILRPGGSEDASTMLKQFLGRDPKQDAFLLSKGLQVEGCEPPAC

[4] = system: Corynebacterium rathayii collagenase; settings: cited from earlier work
[5] = Time 0 hr (set to 100% at the beginning)
[6] = Time 240 hr, relative to 0 hour

SMILES | enzyme inhibition EC 3.4.24.16 pIC50 (Neurolysine EC 3.4.24.16) | enzyme inhibition EC 3.4.24.15 pIC50 [1] | other results
CCC(NC(=O)C(Cc1ccccc1)NC(=O)CCP(=O)(O)Cc1ccc2ccccc2c1)C(=O)O (stereo not drawn) [Compound 25] | 5.9 | 5.7 | –
CCCCC(NC(=O)C(NC(=O)CCP(=O)(O)CCc1cccc2ccccc12)C(C)C)C(=O)O (stereo not drawn) [Compound 26] | 6.3 | 6.5 | –
CCCC[C@H](NC(=O)[C@@H]1CCCN1C(=O)CNP(=O)(O)CCc1ccc2ccccc2c1)C(=O)O [phosphodiepril, reference compound] | – | – | relative stability [2, 5]: 100%; relative stability ([2]; Time 3 hr, relative to 0 hour): 92%; relative stability ([2]; Time 72 hr, relative to 0 hour): 87%; relative stability [2, 6]: 82%; stability on storage (in words) [2]: gradually degraded; outcome of in vivo experiments [3]: negative results
CC[C@H](C)[C@H](NC(=O)[C@@H]1CCCN1)C(=O)O [Pro-IIe] (H-Pro-Ile-OH) | – | – | Ki (endopeptidase 24.16): 90 µM; inhibition of endopeptidase 24.15 (endopeptidase 24.15): does not inhibit
CCCCC(NC(=O)C(C)N(C)C(=O)CCP(=O)(O)CCCCc1ccccc1)C(=O)O (stereo not drawn) [Compound 11] | 6.1 | 6.2 | –
CCCC[C@H](NC(=O)[C@@H]1CCCN1C(=O)CCP(=O)(O)CCc1ccc2ccccc2c1)C(=O)O [Compound 36] | >7.5 | 8.9 | relative stability [2, 5]: 100%; relative stability ([2]; Time 3 hr, relative to 0 hour): 101%; relative stability ([2]; Time 72 hr, relative to 0 hour): 103%; relative stability [2, 6]: 100%; stability on storage (in words) [2]: remained stable
CCC(C)C(NC(=O)CCP(=O)(O)CCc1cccc2ccccc12)C(=O)NC(CC(C)C)C(=O)O (stereo not drawn) [Compound 30] | 5.2 | 5.8 | –
CC(C)C(NC(=O)CCP(=O)(O)CCCCc1ccccc1)C(=O)NC(Cc1ccccc1)C(=O)O (stereo not drawn) [Compound 7] | 6.1 | 6.2 | –
CCC(C)C(NC(=O)CCP(=O)(O)CCc1cccc2ccccc12)C(=O)NC(C(=O)O)C(C)C (stereo not drawn) [Compound 28] | 5.8 | 6.3 | –
CC(C)C(NC(=O)CCP(=O)(O)CCc1cccc2ccccc12)C(=O)NC(Cc1ccccc1)C(=O)O (stereo not drawn) [Compound 27] | 6.1 | 6.2 | –
CCC(C)C(NC(=O)CCP(=O)(O)CCCCc1ccccc1)C(=O)NC(C(=O)O)C(C)C (stereo not drawn) [Compound 8] | 5.4 | 5.8 | –
CCCCC(NC(=O)C(C)N(C)C(=O)CCP(=O)(O)CCc1ccc2ccccc2c1)C(=O)O (stereo not drawn) [Compound 32] | – | 7.0 | –
CCCCC(NC(=O)C(NC(=O)CCP(=O)(O)CCCCc1ccccc1)C(C)C)C(=O)O (stereo not drawn) [Compound 6] | 6.7 | 6.8 | –
CCCC[C@H](NC(=O)[C@@H]1CCCN1C(=O)CCP(=O)(O)CCc1ccccc1)C(=O)O [N-[1-[3-[hydroxyl-(2-phenyl-ethyl)phosphinyl]1-oxopropyl]-L-prolyl]-L-norleucine] | – | – | inhibition of Corynebacterium rathayii collagenase [4]: potent inhibitor
CCC(C)C(NC(=O)CCP(=O)(O)CCc1ccc2ccccc2c1)C(=O)NC(CC(C)C)C(=O)O (stereo not drawn) [Compound 29] | 6.6 | 7.0 | –
CCC(C)C(NC(=O)CCP(=O)(O)CCCCc1ccccc1)C(=O)NC(CC(C)C)C(=O)O (stereo not drawn) [Compound 9] | 5.6 | 6.3 | –
